From the Deep4Chem optical property database come the findings set out here.

This series in a line: photoluminescence quantum yield (fraction); solvent given as SMILES.

Under “in O=P(c1ccccc1)(c1ccccc1)c1ccccc1Oc1ccccc1P(=O)(c1ccccc1)c1ccccc1”, `F[B-]1(F)Oc2ccccc2-c2cc(-n3c4ccccc4c4ccccc43)cc[n+]21` returned a photoluminescence quantum yield of 0.99.

As to `CN(C)c1cccc2c1-c1ccccc1C2=O`, the photoluminescence quantum yield is, setting by setting: (in C1CCCCC1) 0.075; (in CC#N) 0.0075; (in CCO) 0.00027; (in c1ccccc1) 0.073.

In turn, `COc1cc2c(cc1OC)C1=C[C@H](c3ccc(Cl)cc3)C3(C(C#N)=C(C#N)N1CC2)c1cc(Cl)ccc1-c1ccc(Cl)cc13` gave a photoluminescence quantum yield (in ClCCl) of 0.00065.

As for `COc1ccc(OC)cc1`, the photoluminescence quantum yield (in C1CCCCC1) turned out to be 0.22.

Take `COc1ccc(C2=C3C=CC(C)=[N+]3[B-](F)(F)n3c(C)ccc32)cc1`: the photoluminescence quantum yield runs as follows: (in C1CCCCC1) 0.42; (in C1CCOC1) 0.36; (in CC#N) 0.21; (in CCOC(C)=O) 0.3; (in CO) 0.25; (in Cc1ccccc1) 0.52. This compound returned a photoluminescence quantum yield (in ClC(Cl)Cl) of 0.46.

The compound `Nc1cccc2c1ccc1[n+]2[B-](F)(F)n2c-1cc1c3ccccc3c3ccccc3c12` gave a photoluminescence quantum yield (in ClCCl) of 0.1.

For the compound `CC[C@H](C)[C@H](Nc1c(C(C)=O)c(=O)oc2cc(N(C)C)ccc12)C(=O)O`, the photoluminescence quantum yield (in ClCCl) was found to be 0.0031.

`Cc1ccc(OCc2cc(=O)oc3c2ccc2ccccc23)cc1` showed a photoluminescence quantum yield (in C1CCOC1) of 0.0561; a photoluminescence quantum yield (in C1COCCO1) of 0.0665; a photoluminescence quantum yield (in CC#N) of 0.0506; a photoluminescence quantum yield (in CC(C)=O) of 0.0465; a photoluminescence quantum yield (in CCCCO) of 0.0333; a photoluminescence quantum yield (in CCCO) of 0.0312. Further, the photoluminescence quantum yield reads like this: (in CCO) 0.028; (in CCOC(C)=O) 0.0471; (in CN(C)C=O) 0.0576; (in CO) 0.0265; (in Cc1ccccc1) 0.0798; (in ClCCl) 0.0584.

`CCC1=C(C2=C(C3=C(CC)S(=O)(=O)c4cc(-c5ccc(C(C)=O)s5)ccc43)C(F)(F)C(F)(F)C2(F)F)c2ccc(-c3ccc(C(C)=O)s3)cc2S1(=O)=O` had a photoluminescence quantum yield (in C1COCCO1) of 0.

Consider `CCOc1ccc2c(-c3nc(-c4ccccc4F)no3)cc(=O)oc2c1`, for which the photoluminescence quantum yield is, setting by setting: (in CCO) 0.64; (in ClC(Cl)Cl) 0.36.

The compound `c1ccc(N(c2ccccc2)c2ccc(-c3ccc4c(c3)C3(c5ccccc5Sc5ccccc53)c3cc(-c5ccc(N(c6ccccc6)c6ccccc6)cc5)ccc3-4)cc2)cc1` gave a photoluminescence quantum yield (in ClCCl) of 0.81 and a photoluminescence quantum yield (in c1cc(-n2c3ccccc3c3ccccc32)cc(-n2c3ccccc3c3ccccc32)c1) of 0.88.

Compound `C(=C\c1c2ccccc2cc2ccccc12)/c1cnc2ccccc2c1` gave a photoluminescence quantum yield (in CC1CCCCC1) of 0.7 and a photoluminescence quantum yield (in CC#N) of 0.58.

With `N#Cc1cc2ccc(O)cc2oc1=N`, the photoluminescence quantum yield by setting is: (in C1CCOC1) 0.0262; (in CC#N) 0.0086; (in CCOC(C)=O) 0.072; (in CS(C)=O) 0.0022; (in ClC(Cl)Cl) 0.0342.

Regarding `COc1ccc(C(=Cc2ccc(/C=C(\C#N)c3ccc([N+](=O)[O-])cc3)cc2)c2ccc(OC)cc2)cc1`, the photoluminescence quantum yield (in C1CCOC1) stood at 0.045.

Where the note is “in c1ccc([Si](c2ccccc2)(c2ccc(-n3c4ccccc4c4ccccc43)cc2)c2ccc(-n3c4ccccc4c4ccccc43)cc2)cc1”, `Cc1c(C)c(B(c2c(C)c(C)c(N3c4ccccc4Oc4ccccc43)c(C)c2C)c2c(C)c(C)c(N3c4ccccc4Oc4ccccc43)c(C)c2C)c(C)c(C)c1C#N` gave a photoluminescence quantum yield of 0.75.

Regarding `COc1nc(Nc2ccc3cc4ccccc4cc3c2)nc(OC)n1`, the photoluminescence quantum yield is, setting by setting: (in C1COCCO1) 0.45; (in CC#N) 0.37; (in CCCCOCCCC) 0.39; (in CCOC(C)=O) 0.26.

Consider `F[B-]1(F)n2c(cc3ccc4ccccc4c32)C(c2ccc(I)cc2)=C2C=C3CCc4ccccc4C3=[N+]21`, for which, for the setting “in ClC(Cl)Cl”, the photoluminescence quantum yield is 0.17.

Where the note is “in c1ccccc1”, `Nc1ccc2nc(-c3ccccc3)c(=O)oc2c1` displayed a photoluminescence quantum yield of 0.697.

For the compound `COc1ccc(C2=[N+]3C(=Nc4c(-c5cc(OC)c(OC)c(OC)c5)c(Br)c(-c5ccc(OC)cc5)n4[B-]3(F)F)C(c3cc(OC)c(OC)c(OC)c3)=C2Br)cc1`, the photoluminescence quantum yield (in Cc1ccccc1) stood at 0.002.
